Measured values reported in ChEMBL document CHEMBL4622854, “Synthetic bioactive olivetol-related amides: The influence of the phenolic group in cannabinoid receptor activity” (Bioorg Med Chem, 2020).
Calls of active or inactive are those of the source. No cut-off for these calls is given here.

Columns and labels:
Cannabinoid receptor 2 [1] = biological target: T1, Cannabinoid receptor 2 (Homo sapiens, UniProt P34972); test: Displacement of [3H]-CP55940 from human recombinant CB2 receptor expressed in HEK cell membrane; format: cell membranes
Cannabinoid receptor 1 [2] = biological target: T2, Cannabinoid receptor 1 (Homo sapiens, UniProt P21554); test: Displacement of [3H]-CP55940 from human recombinant CB1 receptor expressed in HEK cell membrane; format: cell membranes
Homo sapiens = species: Homo sapiens; test: Selectivity ratio of Ki for displacement of [3H]-CP55940 from human recombinant CB1 receptor expressed in HEK293 cell membrane to Ki for displacement of [3H]-CP55940 from human recombinant CB2 receptor expressed in HEK293 cell membrane
Cannabinoid receptor 2 [3] = biological target: T1, Cannabinoid receptor 2; test: Agonist activity at human CB2 receptor at 1 nM to 1 uM expressed in CHO cell membrane assessed as stimulation of [35S]-GTPgammaS binding incubated for 1 hr by liquid scintillation counting assay
Mus musculus [4] = test: Antinociceptive activity in formalin-induced nociception pain CD-1 mouse model assessed as reduction in pain related behavior in late phase at 1 to 3 mg/kg, ip pretreated with compound 10 mins prior to formalin induction measured after 20 to 60 mins by formalin test; format: functional, organism-based
Mus musculus [5] = species: Mus musculus; test: Antinociceptive activity in formalin-induced nociception pain CD-1 mouse model assessed as reduction in pain related behavior pretreated with compound 10 mins prior to formalin induction co-treated with AM630 measured until 60 mins by formalin test; format: functional, organism-based
Cannabinoid receptor 2 [6] = biological target: T1, Cannabinoid receptor 2; test: Antagonist activity at human CB2 receptor expressed in CHO cell membrane assessed as inhibition of CP55940-induced [35S]-GTPgammaS binding incubated for 1 hr by liquid scintillation counting
Cannabinoid receptor 1 [7] = biological target: T2, Cannabinoid receptor 1; test: Agonist activity at human CB1 receptor expressed in CHO cell membrane assessed as stimulation of [35S]-GTPgammaS binding incubated for 1 hr by liquid scintillation counting assay relative to control
Cannabinoid receptor 2 [8] = biological target: T1, Cannabinoid receptor 2; test: Agonist activity at human CB2 receptor at 10 uM expressed in CHO cell membrane assessed as stimulation of [35S]-GTPgammaS binding incubated for 1 hr by liquid scintillation counting assay relative to control
Mus musculus [9] = species: Mus musculus; test: Antinociceptive activity in formalin-induced nociception pain CD-1 mouse model assessed as reduction in pain related behavior pretreated with compound 10 mins prior to formalin induction co-treated with AM251 measured until 60 mins by formalin test; format: functional, organism-based
Cannabinoid receptor 1 [10] = biological target: T2, Cannabinoid receptor 1; test: Agonist activity at human CB1 receptor expressed in CHO cell membrane assessed as stimulation of [35S]-GTPgammaS binding incubated for 1 hr by liquid scintillation counting assay; format: functional, cell membranes
Mus musculus [11] = test: Antinociceptive activity in formalin-induced nociception pain CD-1 mouse model assessed as reduction in pain related behavior in late phase at 6 mg/kg, ip pretreated with compound 10 mins prior to formalin induction measured after 20 to 60 mins by formalin test; format: functional, organism-based
Cannabinoid receptor 2 [12] = biological target: T1, Cannabinoid receptor 2; test: Agonist activity at human CB2 receptor expressed in CHO cell membrane assessed as inhibition of [35S]-GTPgammaS binding incubated for 1 hr by liquid scintillation counting assay; format: functional, cell membranes
Cannabinoid receptor 2 [13] = biological target: T1, Cannabinoid receptor 2; test: Agonist activity at human CB2 receptor expressed in CHO cell membrane assessed as stimulation of [35S]-GTPgammaS binding incubated for 1 hr by liquid scintillation counting assay relative to control
[14] = biological target: T3, Transient receptor potential cation channel subfamily V member 1 (Homo sapiens, UniProt Q8NER1); test: Antagonist activity at human TRPV1 expressed in HEK293 cells assessed as ionomycin-induced increase of calcium influx at 4 uM preincubated for 5 mins by Fluo-4AM dye based fluorescence assay relative to control; format: cell-based
[15] = biological target: T3, Transient receptor potential cation channel subfamily V member 1; test: Antagonist activity at human TRPV1 expressed in HEK293 cells assessed as capsaicin-induced increase of calcium influx preincubated for 5 mins by Fluo-4AM dye based fluorescence assay; format: cell-based
[16] = biological target: T4, Transient receptor potential cation channel subfamily A member 1 (Rattus norvegicus, UniProt Q6RI86); test: Activation of rat recombinant TRPA1 expressed in HEK293 cells assessed as calcium influx preincubated for 5 mins by Fluo-4AM dye based fluorescence assay; format: cell-based
Mus musculus [17] = test: Antinociceptive activity in formalin-induced nociception pain CD-1 mouse model assessed as reduction in pain related behavior in first phase at 4 mg/kg, ip pretreated with compound 10 mins prior to formalin induction measured from 0 to 10 mins by formalin test; format: functional, organism-based
[18] = biological target: T3, Transient receptor potential cation channel subfamily V member 1; test: Activation of human TRPV1 expressed in HEK293 cells assessed as calcium influx preincubated for 5 mins by Fluo-4AM dye based fluorescence assay; format: cell-based
[19] = biological target: T4, Transient receptor potential cation channel subfamily A member 1; test: Antagonist activity at rat recombinant TRPA1 expressed in HEK293 cells assessed as AITC-induced increase of calcium influx preincubated for 5 mins by Fluo-4AM dye based fluorescence assay; format: cell-based
Mus musculus [20] = test: Antinociceptive activity in formalin-induced nociception pain CD-1 mouse model assessed as reduction in pain related behavior in late phase through ip pretreated with compound 10 mins prior to formalin induction measured after 20 to 60 mins by formalin test; format: functional, organism-based
[21] = biological target: Transient receptor potential cation channel subfamily A member 1 (Rattus norvegicus) (UniProt Q6RI86); test: Antagonist activity at rat recombinant TRPA1 expressed in HEK293 cells assessed as AITC-induced increase of calcium influx at 100 uM preincubated for 5 mins by Fluo-4AM dye based fluorescence assay relative to control; format: cell-based
HepG2 = test: Antiproliferation activity against human HepG2 cells assessed as reduction in cell viability at 1 uM incubated for 24 to 72 hrs by MTT assay; format: functional, cell-based

T2 sequence (P21554 whole entry): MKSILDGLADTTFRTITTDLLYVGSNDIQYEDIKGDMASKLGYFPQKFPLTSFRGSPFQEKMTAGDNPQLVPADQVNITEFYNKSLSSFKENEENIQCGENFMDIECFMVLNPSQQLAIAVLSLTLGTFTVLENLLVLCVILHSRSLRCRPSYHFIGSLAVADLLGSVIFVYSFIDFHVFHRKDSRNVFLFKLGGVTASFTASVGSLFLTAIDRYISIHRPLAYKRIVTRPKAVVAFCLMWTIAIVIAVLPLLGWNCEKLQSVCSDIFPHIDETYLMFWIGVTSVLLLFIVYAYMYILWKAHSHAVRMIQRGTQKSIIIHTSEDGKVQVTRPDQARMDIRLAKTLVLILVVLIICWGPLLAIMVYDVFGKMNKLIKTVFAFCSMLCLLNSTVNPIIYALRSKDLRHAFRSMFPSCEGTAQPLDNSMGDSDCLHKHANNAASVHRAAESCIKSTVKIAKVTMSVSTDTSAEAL
T1 sequence (P34972 whole entry): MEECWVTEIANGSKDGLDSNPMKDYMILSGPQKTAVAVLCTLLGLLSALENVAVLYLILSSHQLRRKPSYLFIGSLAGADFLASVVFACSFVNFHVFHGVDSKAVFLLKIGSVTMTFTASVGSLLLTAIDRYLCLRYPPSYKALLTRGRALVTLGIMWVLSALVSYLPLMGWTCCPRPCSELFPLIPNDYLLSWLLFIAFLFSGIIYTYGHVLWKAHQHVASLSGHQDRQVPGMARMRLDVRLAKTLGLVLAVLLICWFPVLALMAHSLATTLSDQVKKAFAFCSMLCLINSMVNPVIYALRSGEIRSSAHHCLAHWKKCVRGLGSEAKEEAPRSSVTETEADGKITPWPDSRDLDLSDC
T3 sequence (Q8NER1 whole entry): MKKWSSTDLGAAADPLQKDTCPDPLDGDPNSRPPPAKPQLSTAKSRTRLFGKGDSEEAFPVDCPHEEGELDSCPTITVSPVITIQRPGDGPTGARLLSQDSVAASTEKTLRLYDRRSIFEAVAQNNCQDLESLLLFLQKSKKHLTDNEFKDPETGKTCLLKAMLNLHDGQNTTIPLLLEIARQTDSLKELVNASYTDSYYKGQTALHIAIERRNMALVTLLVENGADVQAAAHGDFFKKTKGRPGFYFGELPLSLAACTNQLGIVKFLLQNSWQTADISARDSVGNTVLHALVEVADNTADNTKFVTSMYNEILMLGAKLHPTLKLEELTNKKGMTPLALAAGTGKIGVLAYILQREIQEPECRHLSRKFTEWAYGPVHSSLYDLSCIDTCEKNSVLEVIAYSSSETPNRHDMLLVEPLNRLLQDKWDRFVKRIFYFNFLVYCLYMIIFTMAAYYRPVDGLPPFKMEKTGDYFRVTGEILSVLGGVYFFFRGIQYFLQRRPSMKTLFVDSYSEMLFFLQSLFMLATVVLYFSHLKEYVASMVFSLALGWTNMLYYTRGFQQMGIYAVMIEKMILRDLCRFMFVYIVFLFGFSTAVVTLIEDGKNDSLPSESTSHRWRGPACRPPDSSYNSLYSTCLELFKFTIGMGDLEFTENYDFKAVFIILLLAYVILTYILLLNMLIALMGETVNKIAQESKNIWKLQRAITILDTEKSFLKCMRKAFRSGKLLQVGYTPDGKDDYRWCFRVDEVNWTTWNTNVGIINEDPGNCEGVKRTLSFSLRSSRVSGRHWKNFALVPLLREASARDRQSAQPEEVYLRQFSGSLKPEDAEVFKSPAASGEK
T4 sequence (Q6RI86 whole entry): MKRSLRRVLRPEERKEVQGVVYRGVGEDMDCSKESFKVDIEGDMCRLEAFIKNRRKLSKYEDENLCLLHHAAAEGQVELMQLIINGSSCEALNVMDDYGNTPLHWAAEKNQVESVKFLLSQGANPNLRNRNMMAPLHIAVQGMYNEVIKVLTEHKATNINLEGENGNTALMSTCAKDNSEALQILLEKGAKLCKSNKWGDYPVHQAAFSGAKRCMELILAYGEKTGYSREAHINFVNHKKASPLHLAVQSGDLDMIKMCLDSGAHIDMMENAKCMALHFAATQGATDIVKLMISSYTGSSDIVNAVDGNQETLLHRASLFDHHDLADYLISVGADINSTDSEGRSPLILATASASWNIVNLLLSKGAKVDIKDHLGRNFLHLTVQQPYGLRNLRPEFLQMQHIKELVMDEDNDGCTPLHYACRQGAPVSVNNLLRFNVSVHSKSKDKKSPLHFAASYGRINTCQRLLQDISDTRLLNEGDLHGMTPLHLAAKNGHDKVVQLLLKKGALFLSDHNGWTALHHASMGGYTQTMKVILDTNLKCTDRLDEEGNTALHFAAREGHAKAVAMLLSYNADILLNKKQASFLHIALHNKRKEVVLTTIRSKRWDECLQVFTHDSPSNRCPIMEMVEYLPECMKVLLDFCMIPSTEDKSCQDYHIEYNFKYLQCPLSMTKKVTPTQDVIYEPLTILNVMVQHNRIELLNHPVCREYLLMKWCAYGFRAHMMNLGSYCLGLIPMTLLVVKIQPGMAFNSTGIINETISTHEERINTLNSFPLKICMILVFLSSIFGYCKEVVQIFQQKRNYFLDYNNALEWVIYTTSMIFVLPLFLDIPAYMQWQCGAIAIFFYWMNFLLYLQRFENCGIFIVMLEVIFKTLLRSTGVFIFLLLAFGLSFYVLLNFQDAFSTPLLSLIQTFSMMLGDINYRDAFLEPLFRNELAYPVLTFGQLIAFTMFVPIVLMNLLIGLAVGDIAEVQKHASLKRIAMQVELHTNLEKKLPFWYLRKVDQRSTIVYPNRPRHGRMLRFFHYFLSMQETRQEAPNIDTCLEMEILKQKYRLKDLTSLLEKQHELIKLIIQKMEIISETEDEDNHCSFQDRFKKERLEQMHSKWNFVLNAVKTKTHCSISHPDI
Chain of Transient receptor potential cation channel subfamily A member 1 (Rattus norvegicus) (Q6RI86 whole entry): as above

Structure (SMILES) | Ki (Cannabinoid receptor 2 [1]) [nM] | Ki (Cannabinoid receptor 1 [2]) [nM] | Selectivity ratio (Homo sapiens) | further results
CCCCCc1cc(OCC)cc(OCCCCCCCCCCC(=O)NC2CC2)c1 | 6.7 | 11.7 | 1.8 | –
C=CCNC(=O)CCCCCCCCCCOc1cc(CCCCC)cc(OC)c1 | 6.8 | 23.7 | 3.5 | –
CCCCCc1cc(OC)cc(OCCCCCCCCCCC(=O)NC2CC2)c1 | 1.2 | 3.5 | 2.9 | Activity (Cannabinoid receptor 2 [3]): Active; Activity (Mus musculus [4]): inactive; Activity (Mus musculus [5]): inactive; Kb (Cannabinoid receptor 2 [6]): 37.8 nM; Emax (Cannabinoid receptor 1 [7]): 62.7%; Emax (Cannabinoid receptor 2 [8]): -17.8%; Activity (Mus musculus [9]): inactive; EC50 (Cannabinoid receptor 1 [10]): 6.21 nM; Activity (Mus musculus [11]): Active; EC50 (Cannabinoid receptor 2 [12]): 398 nM
CCCCCc1cc(OC)cc(OCCCCCCCCCCC(=O)NC(CO)CO)c1 | 598 | 350 | 0.6 | –
CCCCCCC(C)(C)c1cc(OC)cc(OCCCCCCCCCCC(=O)NC(CO)CO)c1 | 1370 | > 10000 | > 7.3 | –
CCCCCCC(C)(C)c1cc(OC)cc(OCCCCCCCC(=O)NCC(F)(F)F)c1 | 92.8 | 53.5 | 0.6 | –
CCCCCc1cc(O)cc(OCCCCCCCCCCC(=O)NC2CC2)c1 | – | – | 0.4 | –
CCCCCc1cc(OCCCCCCCCCCC(=O)NC2CC2)cc(OC(C)C)c1 | 2.7 | 20.7 | 7.7 | –
CCCCCc1cc(OCCCC)cc(OCCCCCCCCCCC(=O)NC2CC2)c1 | 21.5 | 11.3 | 0.5 | –
CCCCCCC(C)(C)c1cc(OC)cc(OCCCCCCCCCCC(=O)NCCO)c1 | 104 | 3160 | 30 | –
CCCCCc1cccc(OCCCCCCCCCCC(=O)NC2CC2)c1 | 3.5 | 5.9 | 1.7 | Kb (Cannabinoid receptor 2 [6]): 78.2 nM; Emax (Cannabinoid receptor 1 [7]): 29.5%; EC50 (Cannabinoid receptor 1 [10]): 31 nM; Emax (Cannabinoid receptor 2 [13]): -13%; EC50 (Cannabinoid receptor 2 [12]): 1.28 nM
CCCCCc1cc(OC)cc(OCCCCCCCCCCC(=O)NCCO)c1 | 33.2 | 87.6 | 2.6 | –
CCCCCCC(C)(C)c1cc(OC)cc(OCCCCCCCC(=O)NCCO)c1 | 129 | 89.1 | 0.7 | –
CCCCCCC(C)(C)c1cc(OC)cc(OCCCCCCCCCCC(=O)NC2CC2)c1 | 26.1 | 280 | 10.7 | –
CCCCCc1cc(OC)cc(OCCCCCCCC(=O)NCCO)c1 | 41.9 | 76.1 | 1.8 | –
CCCCCCC(C)(C)c1cc(OC)cc(OCCCCCCCCCCC(=O)NCC2CC2)c1 | 322 | 3190 | 9.9 | –
CCCCCc1cc(OC)cc(OCCCCCCCCCCC(=O)NCC(F)(F)F)c1 | 22.9 | 75.5 | 3.3 | –
C=CCOc1cc(CCCCC)cc(OCCCCCCCCCCC(=O)NC2CC2)c1 | 4.7 | 13.6 | 2.9 | –
CCCCCCc1ccc(OC)cc1OCCCCCCCCCCC(=O)NCC1CC1 | 62.6 | 693 | 11.1 | –
C=CCNC(=O)CCCCCCCOc1cc(OC)cc(C(C)(C)CCCCCC)c1 | 31.2 | 7.6 | 0.2 | –
CCCCCCC(C)(C)c1cc(OC)cc(OCCCCCCCC(=O)NC2CC2)c1 | 4.2 | 1.1 | 0.3 | Efficacy [14]: 29.4%; IC50 [15]: 800 nM; EC50 [16]: 11100 nM; Activity (Mus musculus [5]): Active; Activity (Mus musculus [17]): Active; EC50 [18]: 120 nM; Emax (Cannabinoid receptor 1 [7]): 52.5%; IC50 [19]: > 100000 nM; Activity (Mus musculus [20]): Dose-dependent effect; Efficacy [21]: 17.2%; Activity (Mus musculus [9]): inactive; EC50 (Cannabinoid receptor 1 [10]): 15.1 nM; Activity (HepG2): inactive; Emax (Cannabinoid receptor 2 [13]): 28.3%; EC50 (Cannabinoid receptor 2 [12]): 1.16 nM
CCCCCc1cc(OC)cc(OCCCCCCCCCCC(=O)Nc2ccccc2)c1 | 309 | 845 | 2.7 | –
CCCCCc1cc(OC)cc(OCCCCCCCCCCC(=O)NCC2CC2)c1 | 10.3 | 297 | 28.9 | –
CCCCCCc1ccc(OCCCCCCCCCCC(=O)NCC2CC2)cc1OC | 48.8 | 3250 | 66.6 | Activity (Cannabinoid receptor 2 [3]): Active; Kb (Cannabinoid receptor 2 [6]): 30.6 nM; Emax (Cannabinoid receptor 2 [13]): -18.3%; EC50 (Cannabinoid receptor 2 [12]): 174 nM
